From patent US8258175B2, “Isoindolin-1-one derivatives” (Cancer Research Technology Limited, priority 2004, dated 2012)

Molecular target: T1, MDM2-p53 interaction (Homo sapiens, UniProt Q00987)
T1 construct: made in house; host or cells: in vitro translation (cell-free)
Assay: ELISA assay of MDM2-p53 complex formation (MDM2 binding to immobilised IP3 p53-derived peptide)
Conditions: n=3 independent determinations; 5% DMSO; interpolated from three standard concentrations
Procedure: Streptavidin-coated 96-well plates are used to immobilise a biotin-tagged IP3 p53-derived peptide ([…]). This is a peptide analogue derived from the p53 binding site for MDM2 ([…]). […] Aliquots of MDM2 generated by in vitro translation are pre-incubated for 20 minutes at room temperature (i.e. 20-25° C.) with test compounds and controls, before transfer into the IP3-coated 96-well plates. Following a further incubation period of 90 minutes at 4° C., the plates are washed to remove unbound MDM2 and the residual bound MDM2 is detected using a primary monoclonal antibody (MDM2 Ab-1, clone IF2, Oncogene Research Products) and HRP-conjugated secondary antibody (Goat anti-mouse, Dako PO447). The HRP (horseradish peroxidase) is measured by a chemiluminescence reaction using standard reagents (Amersham Pharmacia™ RPN 2106) and an automatic injection 96-well plate illuminometer (EG & G Berthold Microplate LB 96V).
Compound NU8231 is currently included as a standard “lead compound” positive control. […] The AP peptide is included as a positive control for biological evaluation of the isoindolinones in the cell free binding assays.
All compounds are dissolved in DMSO and tested at three standard concentrations (initially 20 μM, 100 μM and 500 μM) in the presence of a fixed final concentration of 5% DMSO. The percentage inhibition of complex formation is expressed relative to a DMSO only control and an IC50, defined as the concentration required for 50% inhibition of MDM2-p53 complex formation, determined by interpolation.

T1 sequence (Q00987 whole entry): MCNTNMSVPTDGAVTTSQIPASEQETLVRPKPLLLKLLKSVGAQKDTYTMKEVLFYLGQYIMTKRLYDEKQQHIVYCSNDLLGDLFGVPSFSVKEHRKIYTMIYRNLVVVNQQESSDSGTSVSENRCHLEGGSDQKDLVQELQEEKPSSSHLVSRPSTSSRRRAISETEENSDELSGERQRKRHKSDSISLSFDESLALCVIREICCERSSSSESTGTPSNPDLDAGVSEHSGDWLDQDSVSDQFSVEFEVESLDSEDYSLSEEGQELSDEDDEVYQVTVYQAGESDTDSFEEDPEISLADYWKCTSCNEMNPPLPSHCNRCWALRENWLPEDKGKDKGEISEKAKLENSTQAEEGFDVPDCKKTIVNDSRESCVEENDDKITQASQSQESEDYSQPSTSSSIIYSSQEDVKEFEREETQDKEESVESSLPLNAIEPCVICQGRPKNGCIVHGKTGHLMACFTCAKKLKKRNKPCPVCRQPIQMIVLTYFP

Structure (SMILES)	IC50 [µM]
CCCN1C(=O)c2ccccc2C1(OCCCO)c1ccccc1 (stereo not drawn) [NU8033, 3-(3-Hydroxy-propoxy)-3-phenyl-2-propyl-2,3-dihydro-1H-isoindolin-1-one]	> 500
O=C1c2ccccc2C(OCCCO)(c2ccccc2)N1Cc1ccccc1 (stereo not drawn) [NU8034, 2-Benzyl-3-(3-Hydroxy-propoxy)-3-phenyl-2,3-dihydro-1H-isoindolin-1-one]	245 ± 11
CC(C)COc1ccc(C2(NC(=O)c3ccccc3)c3ccccc3C(=O)N2CC2CCCCC2)cc1 (stereo not drawn) [NU8200, N-[2-Cyclohexylmethyl-1-(4-isobutoxyphenyl)-3-oxo-2,3-dihydro-1H-isoindolin-1-yl]benzamide]	123 ± 30
CCCOC1(c2ccccc2)c2ccccc2C(=O)N1CCO (stereo not drawn) [NU8206, 2-(2-Hydroxyethyl)-3-phenyl-3-propoxy-2,3-dihydroisoindolin-1-one]	> 500
O=C1c2ccccc2C(OCCN2CCNCC2)(c2ccccc2)N1Cc1ccccc1 (stereo not drawn) [NU8211, 2-Benzyl-3-phenyl-3-(2-piperazin-1-ylethoxy)-2,3-dihydroisoindolin-1-one]	315 ± 72
CC(C)(C)c1ccc(COC2(c3ccccc3)c3ccccc3C(=O)N2CCc2cnc[nH]2)cc1 (stereo not drawn) [NU8214, 3-(4-t-Butylbenzyloxy)-2-[2-(3H-imidazol-4-yl)-ethyl]-3-phenyl-2,3-dihydroisoindolin-1-one]	214 ± 56
COc1ccc(COC2(c3ccccc3)c3ccccc3C(=O)N2Cc2ccccc2)cc1 (stereo not drawn) [NU8226, 2-Benzyl-3-(4-methoxybenzyloxy)-3-phenyl-2,3-dihydroisoindolin-1-one]	456 ± 44
C=CCOc1c(OC)cc(COC2(c3ccc(Cl)cc3)c3ccccc3C(=O)N2CCC)cc1OC (stereo not drawn) [NU8232, 3-(4-Allyloxy-3,5-dimethoxybenzyloxy)-3-(4-chlorophenyl)-2-propyl-2,3-dihydroisoindolin-1-one]	264 ± 38
CCCN1C(=O)c2ccccc2C1(OCc1ccc(C(C)(C)C)cc1)c1ccc(OCOCC[Si](C)(C)C)cc1 (stereo not drawn) [NU8233, 3-(4-tert-Butylbenzyloxy)-2-propyl-3-[4-(2-trimethylsilanylethoxymethoxy)-phenyl]-2,3-dihydroisoindolin-1-one]	464 ± 31
CCCN1C(=O)c2ccccc2C1(OCCCO)c1ccc(OCOCC[Si](C)(C)C)cc1 (stereo not drawn) [NU8234, 3-(3-Hydroxypropoxy)-2-propyl-3-[4-(2-trimethylsilanylethoxymethoxy)-phenyl]-2,3-dihydroisoindolin-1-one]	476 ± 24
CCCN1C(=O)c2ccccc2C1(OCCc1ccccn1)c1ccc(OCOCC[Si](C)(C)C)cc1 (stereo not drawn) [NU8235, 2-Propyl-3-(2-pyridin-2-yl-ethoxy)-3-[4-(2-trimethylsilanylethoxymethoxy)-phenyl]-2,3-dihydroisoindolin-1-one]	312 ± 22
CCCN1C(=O)c2ccccc2C1(OCc1cc(OC)c(O)c(OC)c1)c1ccc(OCOCC[Si](C)(C)C)cc1 (stereo not drawn) [NU8236, 3-(4-Hydroxy-3,5-dimethoxybenzyloxy)-2-propyl-3-[4-(2-trimethylsilanylethoxy-methoxy)-phenyl]-2,3-dihydroisoindolin-1-one]	118 ± 24
CCCN1C(=O)c2ccccc2C1(OCc1ccccc1)c1ccc(Cl)cc1 (stereo not drawn) [NU8237, 3-Benzyloxy-3-(4-chlorophenyl)-2-propyl-2,3-dihydroisoindolin-1-one]	409 ± 43
COc1cc(COC2(c3ccc(OCOCC[Si](C)(C)C)cc3)c3ccccc3C(=O)N2Cc2ccccc2)cc(OC)c1O (stereo not drawn) [NU8238, 2-Benzyl-3-(4-hydroxy-3,5-dimethoxybenzyloxy)-3-[4-(2-trimethylsilanylethoxy-methoxy)phenyl]-2,3-dihydroisoindolin-1-one]	257 ± 34
C[Si](C)(C)CCOCOc1ccc(C2(O)c3ccccc3C(=O)N2Cc2ccccc2)cc1 (stereo not drawn) [NU8239, 2-Benzyl-3-hydroxy-3-[4-(2-trimethylsilanylethoxymethoxy)phenyl]-2,3-dihydroisoindol-1-one]	366 ± 61
C=CCOc1ccc(COC2(c3ccc(Cl)cc3)c3ccccc3C(=O)N2CCC)cc1 (stereo not drawn) [NU8240]	304 ± 42
C=CCOc1ccc(COC2(c3ccc(Cl)cc3)c3ccccc3C(=O)N2CCC)cc1OC (stereo not drawn) [NU8242, 3-(4-chlorophenyl)-3-(4-allyloxy-3-methoxy-benzyloxy)-2-propyl-2,3-dihydroisoindolin-1-one]	272 ± 5

Next, values leading:

IC50 [µM]	Structure (SMILES)
206 ± 130	O=C1c2ccccc2C(OCCc2ccccn2)(c2ccccc2)N1Cc1ccccc1 (stereo not drawn) [NU8133, 2-Benzyl-3-phenyl-3-(2-pyridin-2-yl-ethoxy)-2,3-dihydro-isoindolin-1-one]
209 ± 28	CCOc1ccc(C2(NC(=O)c3ccccc3)c3ccccc3C(=O)N2CC2CCCCC2)cc1 (stereo not drawn) [NU8201, N-[2-Cyclohexylmethyl 1-(4-ethoxyphenyl)-3-oxo-2,3-dihydro-1H-isoindolin-1-yl]benzamide]
82 ± 16	CSc1ccc(C2(NC(=O)c3ccccc3)c3ccccc3C(=O)N2CC2CCCCC2)cc1 (stereo not drawn) [NU8202, N-[2-Cyclohexylmethyl-1-(4-methylsulfanylphenyl)-3-oxo-2,3-dihydro-1H-isoindolin-1-yl]benzamide]
116 ± 20	O=C1c2ccccc2C(OCCNc2ccccc2)(c2ccccc2)N1Cc1ccccc1 (stereo not drawn) [NU8204, 2-Benzyl-3-phenyl-3-(2-phenylaminoethoxy)-2,3-dihydroisoindolin-1-one]
17.9 ± 0.3	COc1cc(COC2(c3ccccc3)c3ccccc3C(=O)N2Cc2ccccc2)cc(OC)c1O (stereo not drawn) [NU8205, 2-Benzyl-3-(4-hydroxy-3,5-dimethoxybenzyloxy)-3-phenyl-2,3-dihydro-isoindolin-1-one]
14.4 ± 0.3	CC(=O)NCCN1C(=O)c2ccccc2C1(OCc1ccc(C(C)(C)C)cc1)c1ccccc1 (stereo not drawn) [NU8213, N-{2-[1-(4-t-Butyl-benzyloxy)-3-oxo-1-phenyl-1,3-dihydro-isoindolin-2-yl]-ethyl}-acetamide]
103 ± 43	C=C(C)C(=O)OCCN1C(=O)c2ccccc2C1(NC(CO)C(O)c1ccccc1)c1ccccc1 (stereo not drawn) [NU8216, 2-Methylacrylic acid 2-[1-(2-hydroxy-1-hydroxymethyl-2-phenylethylamino)-3-oxo-1-phenyl-1,3-dihydroisoindolin-2-yl]ethyl ester]
83 ± 5	C=CCOc1cc(COC2(c3ccc(Cl)cc3)c3ccccc3C(=O)N2CCC)ccc1OC (stereo not drawn) [NU8241, 3-(4-chlorophenyl)-3-(3-allyloxy-4-methoxy-benzyloxy)-2-propyl-2,3-dihydroisoindolin-1-one]
7.7 ± 0.3	CCCN1C(=O)c2ccccc2C1(OCc1ccc(O)cc1)c1ccc(Cl)cc1 (stereo not drawn) [NU8243]
9.5 ± 1.9	CCCN1C(=O)c2ccccc2C1(OCc1ccc(OC)c(O)c1)c1ccc(Cl)cc1 (stereo not drawn) [NU8244]
23 ± 4	C#CCN1C(=O)c2ccccc2C1(OCc1cc(OC)c(O)c(OC)c1)c1ccc(Cl)cc1 (stereo not drawn) [NU8245, 3-(4-Chlorophenyl)-3-(4-hydroxy-3,5-dimethoxybenzyloxy)-2-prop-2-ynyl-2,3-dihydroisoindolin-1-one]
3 ± 0.7	CCCN1C(=O)c2ccccc2C1(OC1CCC(O)C1)c1ccc(Cl)cc1 (stereo not drawn) [NU8253, 3-(4-Chlorophenyl)-3-(3-hydroxycyclopentyloxy)-2-propylisoindolin-1-one]
5.5 ± 1.7	O=C1c2ccccc2C(OC2CCC(O)C2)(c2ccc(Cl)cc2)N1CCc1ccccc1 (stereo not drawn) [NU8257, 3-(4-Chlorophenyl)-3-(3-hydroxycyclopentyloxy)-2-phenethylisoindolin-1-one]
